The source of these data is EP4768484A1, “HETEROCYCLIC FUSED RING COMPOUND, AND COMPOSITION AND USE THEREOF” (Shenzhen TargetRx, Inc., priority 2023, dated 2025).

What all share (type): cell-based
In one experiment the target is T1, Ba/F3 BCR-ABL1 T315I (Homo sapiens, UniProt P00519+P11274, T315I).
T1 construct: BCR (N-terminal fusion partner of the oncoprotein); expressed in transfected cells; host or cells: Ba/F3 (lentiviral transduction, monoclonal line)
The experiment is described as follows: Cell growth inhibitory activity assay (CellTiter-Glo), Ba/F3 BCR-ABL1 T315I cells. The conditions noted are these: 72 h, CTG cell viability. The method, boiled down:
(§1)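 Ba/F3 parental cells or Ba/F3 lines lentivirally transduced with WT or mutant BCR-ABL1, seeded overnight then exposed to serially diluted compound 72 h at 37 °C, 5% CO2. Viability by CellTiter-Glo ATP luminescence with a T0 plate; 0.5% DMSO controls; IC50 from four-parameter nonlinear fit.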

The target of another experiment is T2, Ba/F3 BCR-ABL1 WT (Homo sapiens, UniProt P00519+P11274).
T2 construct: BCR (N-terminal fusion partner of the oncoprotein); expressed in transfected cells; host or cells: Ba/F3 (lentiviral transduction, monoclonal line)
The experiment is described as follows: Cell growth inhibitory activity assay (CellTiter-Glo), Ba/F3 BCR-ABL1 WT cells. The conditions noted are these: 72 h, CTG cell viability. The gist of the method:
as §1
(In general: ATP-based viability assays read luminescence as a measure of living cells.)

In a further experiment the test system is K562 cells. The experiment is described as follows: Cell growth inhibitory activity assay (CellTiter-Glo), K562 cells. As to conditions: Homo sapiens, 72 h, CTG cell viability. The gist of the method:
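Growth inhibition of human K562 cells, sourced from Nanjing Kebai (CBP60529), was assessed with Promega's CellTiter-Glo kit, which measures viability through ATP quantification. Log-phase cells went into the inner wells of 96-well plates, with PBS in edge wells, incubated overnight at 37 °C and 5% CO2, then exposed to serially diluted compound for 72 h.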

In another experiment the test system is Ba/F3 parental cells. The experiment in a line: Cell growth inhibitory activity assay (CellTiter-Glo), Ba/F3 parental cells. The conditions noted are these: Mus musculus, BaF3, 72 h, CTG cell viability, read-out: IC50 Ba/F3 BCR-ABL1 Parental. The gist of the method: as §1

SMILES strings stand for the structures.

For the molecule `C[C@@H]1COCc2nc3cc(C(=O)Nc4ccc(OC(F)(F)Cl)cc4)cc(-c4cnc5c(c4)-c4nn(-c6nccc(-c7ccn(C)n7)n6)cc4C5)c3n21` [T-90, (R)-N-(4-(chlorodifluoromethoxy)phenyl)-4-methyl-6-(2-(4-(1-methyl-1H-oyrazol-3-yl)pyrimidin-2-yl)-2,4-dihydropyrazolo[3',4':3,4]cyclopenta[1,2-b]pyridin-7-yl)-3,4-dihydro-1H-benzo[4,5]imidazo[2,1-c][1,4]oxazine-8-carboxamide], the IC50 on Ba/F3 BCR-ABL1 T315I is ≤ 5 nM; at Ba/F3 BCR-ABL1 WT, ≤ 5 nM; in the experiment with K562 cells it was ≤ 5 nM; in the experiment on Ba/F3 parental cells, > 1000 nM.

With `COc1ccc(-c2ccnc(-n3ncc4c3-c3cc(-c5cc(C(=O)Nc6ccc(OC(F)(F)Cl)cc6)cc6nc7n(c56)[C@H](C)COC7)cnc3C4)n2)cc1F` [T-91-A, (R)-N-(4-(chlorodifluoromethoxy)phenyl)-6-(1-(4-(3-fluoro-4-methoxyphenyl)pyrimidin-2-yl)-1,4-dihydropyrazolo[3',4':3,4]cyclopenta[1,2-b]pyridin-7-yl)-4-methyl-3,4-dihydro-1H-benzo[4,5]imidazo[2,1-c][1,4]oxazine-8-carboxamide], the IC50 is 50 to 1000 nM on Ba/F3 BCR-ABL1 T315I, 5 to 50 nM against Ba/F3 BCR-ABL1 WT, ≤ 5 nM in the experiment with K562 cells and > 1000 nM in the experiment on Ba/F3 parental cells.

Take `COc1ccc(-c2ccnc(-n3cc4c(n3)-c3cc(-c5cc(C(=O)Nc6ccc(OC(F)(F)Cl)cc6)cc6nc7n(c56)[C@H](C)COC7)cnc3C4)n2)cc1F` [T-91-B, (R)-N-(4-(chlorodifluoromethoxy)phenyl)-6-(2-(4-(3-fluoro-4-methoxyphenyl)pyrimidin-2-yl)-2,4-dihydropyrazolo[3',4':3,4]cyclopenta[1,2-b]pyridin-7-yl)-4-methyl-3,4-dihydro-1H-benzo[4,5]imidazo[2,1-c][1,4]oxazine-8-carboxamide]: the IC50 at Ba/F3 BCR-ABL1 T315I was ≤ 5 nM; at Ba/F3 BCR-ABL1 WT it was ≤ 5 nM; in the experiment on K562 cells, ≤ 5 nM; in the experiment with Ba/F3 parental cells it was > 1000 nM.

In the case of `C[C@@H]1COCc2nc3cc(C(=O)Nc4ccc(OC(F)(F)Cl)cc4)cc(-c4cnc5c(c4)-c4nn(-c6nccc(-c7ccccc7F)n6)cc4C5)c3n21` [T-92, (R)-N-(4-(chlorodifluoromethoxy)phenyl)-6-(2-(4-(2-fluorophenyl)pyrimidin-2-yl)-2,4-dihydropyrazolo[3',4':3,4]cyclopenta[1,2-b]pyridin-7-yl)-4-methyl-3,4-dihydro-1H-benzo[4,5]imidazo[2,1-c][1,4]oxazine-8-carboxamide], the IC50 at Ba/F3 BCR-ABL1 T315I is ≤ 5 nM; on Ba/F3 BCR-ABL1 WT, ≤ 5 nM; with K562 cells, ≤ 5 nM; in the experiment on Ba/F3 parental cells, > 1000 nM.

Take `COc1cccc(-c2ccnc(-n3cc4c(n3)-c3cc(-c5cc(C(=O)Nc6ccc(OC(F)(F)Cl)cc6)cc6nc7n(c56)[C@H](C)COC7)cnc3C4)n2)c1F` [T-93, (R)-N-(4-(chlorodifluoromethoxy)phenyl)-6-(2-(4-(2-fluoro-3-methoxyphenyl)pyrimidin-2-yl)-2,4-dihydropyrazolo[3',4':3,4]cyclopenta[1,2-b]pyridin-7-yl)-4-methyl-3,4-dihydro-1H-benzo[4,5]imidazo[2,1-c][1,4]oxazine-8-carboxamide]: the IC50 was ≤ 5 nM at Ba/F3 BCR-ABL1 T315I, ≤ 5 nM against Ba/F3 BCR-ABL1 WT, ≤ 5 nM in the experiment on K562 cells and > 1000 nM in the experiment on Ba/F3 parental cells.

`C[C@@H]1COCc2nc3cc(C(=O)Nc4ccc(OC(F)(F)Cl)cc4)cc(-c4cnc5c(c4)-c4nn(-c6nccc(-c7ccc(F)nc7)n6)cc4C5)c3n21` [T-94, (R)-N-(4-(chlorodifluoromethoxy)phenyl)-6-(2-(4-(6-fluoropyridin-3-yl)pyrimidin-2-yl)-2,4-dihydropyrazolo[3',4':3,4]cyclopenta[1,2-b]pyridin-7-yl)-4-methyl-3,4-dihydro-1H-benzo[4,5]imidazo[2,1-c][1,4]oxazine-8-carboxamide]: the IC50 against Ba/F3 BCR-ABL1 T315I was ≤ 5 nM; on Ba/F3 BCR-ABL1 WT, ≤ 5 nM; in the experiment with K562 cells, ≤ 5 nM; in the experiment with Ba/F3 parental cells it was > 1000 nM.

As to `C[C@@H]1COCc2nc3cc(C(=O)Nc4ccc(OC(F)(F)Cl)cc4)cc(-c4cnc5c(c4)-c4nn(-c6nccc(-c7cccnc7F)n6)cc4C5)c3n21` [T-95, (R)-N-(4-(chlorodifluoromethoxy)phenyl)-6-(2-(4-(2-fluoropyridin-3-yl)pyrimidin-2-yl)-2,4-dihydropyrazolo[3',4':3,4]cyclopenta[1,2-b]pyridin-7-yl)-4-methyl-3,4-dihydro-1H-benzo[4,5]imidazo[2,1-c][1,4]oxazine-8-carboxamide], the IC50 at Ba/F3 BCR-ABL1 T315I was ≤ 5 nM; at Ba/F3 BCR-ABL1 WT it was ≤ 5 nM; with K562 cells, ≤ 5 nM; with Ba/F3 parental cells, > 1000 nM.

For the molecule `C[C@@H]1COCc2nc3cc(C(=O)Nc4ccc(OC(F)(F)Cl)cc4)cc(-c4cnc5c(c4)-c4nn(-c6nccc(-c7cncc(F)c7)n6)cc4C5)c3n21` [T-96, (R)-N-(4-(chlorodifluoromethoxy)phenyl)-6-(2-(4-(5-fluoropyridin-3-yl)pyrimidin-2-yl)-2,4-dihydropyrazolo[3',4':3,4]cyclopenta[1,2-b]pyridin-7-yl)-4-methyl-3,4-dihydro-1H-benzo[4,5]imidazo[2,1-c][1,4]oxazine-8-carboxamide], the IC50 at Ba/F3 BCR-ABL1 T315I was ≤ 5 nM; against Ba/F3 BCR-ABL1 WT, ≤ 5 nM; with K562 cells, ≤ 5 nM; in the experiment on Ba/F3 parental cells it was > 1000 nM.

Turning to `COc1ncc(-c2ccnc(-n3cc4c(n3)-c3cc(-c5cc(C(=O)Nc6ccc(OC(F)(F)Cl)cc6)cc6nc7n(c56)[C@H](C)COC7)cnc3C4)n2)cc1F` [T-97, (R)-N-(4-(chlorodifluoromethoxy)phenyl)-6-(2-(4-(5-fluoro-6-methoxyoyridin-3-yl)pyrimidin-2-yl)-2,4-dihydropyrazolo[3',4':3,4]cyclopenta[1,2-b]pyridin-7-yl)-4-methyl-3,4-dihydro-1H-benzo[4,5]imidazo[2,1-c][1,4]oxazine-8-carboxamide], the IC50 on Ba/F3 BCR-ABL1 T315I was ≤ 5 nM; against Ba/F3 BCR-ABL1 WT, ≤ 5 nM; with K562 cells it was ≤ 5 nM; in the experiment on Ba/F3 parental cells, > 1000 nM.

As to `C[C@@H]1COCc2nc3cc(C(=O)Nc4ccc(OC(F)(F)Cl)cc4)cc(-c4cnc5c(c4)-c4nn(-c6nccc(-c7cncc(C#N)c7)n6)cc4C5)c3n21` [T-98, (R)-N-(4-(chlorodifluoromethoxy)phenyl)-6-(2-(4-(5-cyanopyridin-3-yl)pyrimidin-2-yl)-2,4-dihydropyrazolo[3',4':3,4]cyclopenta[1,2-b]pyridin-7-yl)-4-methyl-3,4-dihydro-1H-benzo[4,5]imidazo[2,1-c][1,4]oxazine-8-carboxamide], the IC50 against Ba/F3 BCR-ABL1 T315I is ≤ 5 nM; against Ba/F3 BCR-ABL1 WT, ≤ 5 nM; in the experiment on K562 cells, ≤ 5 nM; in the experiment with Ba/F3 parental cells it was > 1000 nM.

Consider `C[C@@H]1COCc2nc3cc(C(=O)Nc4ccc(OC(F)(F)Cl)cc4)cc(-c4cnc5c(c4)-c4nn(-c6nccc(-c7ccc(C#N)nc7)n6)cc4C5)c3n21` [T-99, (R)-N-(4-(chlorodifluoromethoxy)phenyl)-6-(2-(4-(6-cyanopyridin-3-yl)pyrimidin-2-yl)-2,4-dihydropyrazolo[3',4':3,4]cyclopenta[1,2-b]pyridin-7-yl)-4-methyl-3,4-dihydro-1H-benzo[4,5]imidazo[2,1-c][1,4]oxazine-8-carboxamide], for which the IC50 against Ba/F3 BCR-ABL1 T315I was ≤ 5 nM; against Ba/F3 BCR-ABL1 WT, ≤ 5 nM; with K562 cells it was ≤ 5 nM; in the experiment with Ba/F3 parental cells, > 1000 nM.

With `C[C@@H]1COCc2nc3cc(C(=O)Nc4ccc(OC(F)(F)Cl)cc4)cc(-c4cnc5c(c4)-c4nn(-c6nccc(-c7cncnc7)n6)cc4C5)c3n21` [T-100, (R)-6-(2-([4,5'-bipyrimidin]-2-yl)-2,4-dihydropyrazolo[3',4':3,4]cyclopenta[1,2-b]pyridin-7-yl)-N-(4-(chlorodifluoromethoxy)phenyl)-4-methyl-3,4-dihydro-1H-benzo[4,5]imidazo[2,1-c][1,4]oxazine-8-carboxamide], the IC50 on Ba/F3 BCR-ABL1 T315I was ≤ 5 nM; against Ba/F3 BCR-ABL1 WT, ≤ 5 nM; in the experiment with K562 cells it was ≤ 5 nM; in the experiment on Ba/F3 parental cells, > 1000 nM.

On to `CC(C)c1cnc(-n2cc3c(n2)-c2cc(-c4cc(C(=O)Nc5ccc(OC(F)(F)Cl)cc5)cc5nc6n(c45)[C@H](C)COC6)cnc2C3)nc1` [T-101, (R)-N-(4-(chlorodifluoromethoxy)phenyl)-6-(2-(5-isopropyloyrimidin-2-yl)-2,4-dihydropyrazolo[3',4':3,4]cyclooenta[1,2-b]pyridin-7-yl)-4-methyl-3,4-dihydro-1H-benzo[4,5]imidazo[2,1-c][1,4]oxazine-8-carboxamide], for which the IC50 was ≤ 5 nM at Ba/F3 BCR-ABL1 T315I, ≤ 5 nM against Ba/F3 BCR-ABL1 WT, ≤ 5 nM in the experiment with K562 cells and > 1000 nM in the experiment with Ba/F3 parental cells.

Turning to `C[C@@H]1COCc2nc3cc(C(=O)Nc4ccc(OC(F)(F)Cl)cc4)cc(-c4cnc5c(c4)-c4nn(-c6nccn6C)cc4C5)c3n21` [T-102, (R)-N-(4-(chlorodifluoromethoxy)phenyl)-4-methyl-6-(2-(1-methyl-1H-imidazol-2-yl)-2,4-dihydropyrazolo[3',4':3,4]cyclopenta[1,2-b]pyridin-7-yl)-3,4-dihydro-1H-benzo[4,5]imidazo[2,1-c][1,4]oxazine-8-carboxamide], the IC50 is ≤ 5 nM at Ba/F3 BCR-ABL1 T315I, ≤ 5 nM at Ba/F3 BCR-ABL1 WT, ≤ 5 nM with K562 cells and > 1000 nM in the experiment with Ba/F3 parental cells.
